From the supplement of paper PMC13380429

Key:
A549-ACE2 [1] = assay: phospholipidosis EC50; higher = less potent phospholipidosis inducer
[2] = tested on: A549-ACE2 infected with SARS-CoV-2; assay: morphology score (similarity to uninfected cells); higher = more like uninfected cells; conditions: 24 h
Caco-2 [3] = assay: cell viability relative to DMSO; higher = less toxic; conditions: 72 h
Vero E6 [4] = assay: as above; conditions: 72 h
U2OS [5] = assay: as above; conditions: 72 h
Calu-3 [6] = assay: as above; conditions: 72 h
HepG2 [7] = assay: as above; conditions: 72 h
A549-ACE2 [8] = assay: drug-induced phospholipidosis relative to tamoxifen; higher = more phospholipidosis
[9] = tested on: A549-ACE2 infected with SARS-CoV-2; assay: cell count relative to DMSO; higher = less toxic; conditions: 24 h
Caco-2 [10] = assay: relative viability EC50 (midpoint between 100% and the lowest measured viability); higher = less toxic; conditions: 72 h
Vero E6 [11] = assay: as above; conditions: 72 h
U2OS [12] = assay: as above; conditions: 72 h
Calu-3 [13] = assay: as above; conditions: 72 h
HepG2 [14] = assay: as above; conditions: 72 h
Caco-2 [15] = assay: drug sensitivity score (DSS) for viability; higher = more toxic; extreme values may be limits of the assay; conditions: 72 h
Vero E6 [16] = assay: as above; conditions: 72 h
U2OS [17] = assay: as above; conditions: 72 h
Calu-3 [18] = assay: as above; conditions: 72 h
HepG2 [19] = assay: as above; conditions: 72 h
[20] = tested on: A549-ACE2 infected with SARS-CoV-2; assay: SARS-CoV-2 infection rate relative to DMSO; higher = more infection; conditions: 24 h

O=C(NC1CCN(CCCCC2(C(=O)NCC(F)(F)F)c3ccccc3-c3ccccc32)CC1)c1ccccc1-c1ccc(C(F)(F)F)cc1 [lomitapide]
phospholipidosis EC50 (A549-ACE2 [1]; 24 h): 898 nM
phospholipidosis EC50 (A549-ACE2 [1]; 48 h): 1800 nM
phospholipidosis EC50 (A549-ACE2 [1]; 72 h): 2500 nM
morphology score ([2]; 0.1 µM): -0.14
morphology score ([2]; 0.3 µM): 0.12
morphology score ([2]; 1 µM): 0.6
morphology score ([2]; 3 µM): 0.91
cell viability (Caco-2 [3]; 1 nM): 101%
cell viability (Caco-2 [3]; 10 nM): 103%
cell viability (Caco-2 [3]; 100 nM): 103%
cell viability (Caco-2 [3]; 1000 nM): 103%
cell viability (Caco-2 [3]; 10000 nM): 11.8%
cell viability (Vero E6 [4]; 1 nM): 102%
cell viability (Vero E6 [4]; 10 nM): 104%
cell viability (Vero E6 [4]; 100 nM): 96%
cell viability (Vero E6 [4]; 1000 nM): 97.8%
cell viability (Vero E6 [4]; 10000 nM): -0.6%
cell viability (U2OS [5]; 1 nM): 101%
cell viability (U2OS [5]; 10 nM): 110%
cell viability (U2OS [5]; 100 nM): 104%
cell viability (U2OS [5]; 1000 nM): 106%
cell viability (U2OS [5]; 10000 nM): 1.2%
cell viability (Calu-3 [6]; 1 nM): 101%
cell viability (Calu-3 [6]; 10 nM): 100%
cell viability (Calu-3 [6]; 100 nM): 98.4%
cell viability (Calu-3 [6]; 1000 nM): 109%
cell viability (Calu-3 [6]; 10000 nM): 1.2%
cell viability (HepG2 [7]; 1 nM): 108%
cell viability (HepG2 [7]; 10 nM): 106%
cell viability (HepG2 [7]; 100 nM): 106%
cell viability (HepG2 [7]; 1000 nM): 100%
cell viability (HepG2 [7]; 10000 nM): -0.5%
drug-induced phospholipidosis (A549-ACE2 [8]; 0.3 µM, 24 h): 11.9%
drug-induced phospholipidosis (A549-ACE2 [8]; 0.3 µM, 48 h): 15.5%
drug-induced phospholipidosis (A549-ACE2 [8]; 0.3 µM, 72 h): 12.7%
drug-induced phospholipidosis (A549-ACE2 [8]; 0.833333 µM, 24 h): 29.7%
drug-induced phospholipidosis (A549-ACE2 [8]; 0.833333 µM, 48 h): 36%
drug-induced phospholipidosis (A549-ACE2 [8]; 0.833333 µM, 72 h): 28.5%
drug-induced phospholipidosis (A549-ACE2 [8]; 3.33333 µM, 24 h): 81%
drug-induced phospholipidosis (A549-ACE2 [8]; 3.33333 µM, 48 h): 91.1%
drug-induced phospholipidosis (A549-ACE2 [8]; 3.33333 µM, 72 h): 83.5%
drug-induced phospholipidosis (A549-ACE2 [8]; 6.66667 µM, 24 h): 81.2%
drug-induced phospholipidosis (A549-ACE2 [8]; 6.66667 µM, 48 h): 108%
drug-induced phospholipidosis (A549-ACE2 [8]; 6.66667 µM, 72 h): 131%
drug-induced phospholipidosis (A549-ACE2 [8]; 10 µM, 24 h): 40.9%
drug-induced phospholipidosis (A549-ACE2 [8]; 30 µM, 24 h): 49.8%
cell count ([9]; 0.1 µM): 96%
cell count ([9]; 0.3 µM): 104%
cell count ([9]; 1 µM): 108%
cell count ([9]; 3 µM): 119%
relative viability EC50 (Caco-2 [10]): 3380 nM
relative viability EC50 (Vero E6 [11]): 2970 nM
relative viability EC50 (U2OS [12]): 3460 nM
relative viability EC50 (Calu-3 [13]): 3610 nM
relative viability EC50 (HepG2 [14]): 3140 nM
drug sensitivity score (Caco-2 [15]): 4.6
drug sensitivity score (Vero E6 [16]): 5.9
drug sensitivity score (U2OS [17]): 5.1
drug sensitivity score (Calu-3 [18]): 4.9
drug sensitivity score (HepG2 [19]): 5.6
SARS-CoV-2 infection rate ([20]; 0.1 µM): 98%
SARS-CoV-2 infection rate ([20]; 0.3 µM): 93%
SARS-CoV-2 infection rate ([20]; 1 µM): 72%
SARS-CoV-2 infection rate ([20]; 3 µM): 12%

CCN(CC)C(=S)SSC(=S)N(CC)CC [disulfiram]
morphology score ([2]; 0.3 µM): 0.44
morphology score ([2]; 3 µM): 0.45
morphology score ([2]; 10 µM): 0.51
morphology score ([2]; 30 µM): 0.35
cell viability (Caco-2 [3]; 1 nM): 103%
cell viability (Caco-2 [3]; 10 nM): 90.1%
cell viability (Caco-2 [3]; 100 nM): 19.1%
cell viability (Caco-2 [3]; 1000 nM): 9.6%
cell viability (Caco-2 [3]; 10000 nM): 75.3%
cell viability (Vero E6 [4]; 1 nM): 108%
cell viability (Vero E6 [4]; 10 nM): 104%
cell viability (Vero E6 [4]; 100 nM): 101%
cell viability (Vero E6 [4]; 1000 nM): 89.3%
cell viability (Vero E6 [4]; 10000 nM): 99.6%
cell viability (U2OS [5]; 1 nM): 100%
cell viability (U2OS [5]; 10 nM): 99.6%
cell viability (U2OS [5]; 100 nM): 99%
cell viability (U2OS [5]; 1000 nM): 78%
cell viability (U2OS [5]; 10000 nM): 94.6%
cell viability (Calu-3 [6]; 1 nM): 101%
cell viability (Calu-3 [6]; 10 nM): 90.5%
cell viability (Calu-3 [6]; 100 nM): 94.7%
cell viability (Calu-3 [6]; 1000 nM): 36.9%
cell viability (Calu-3 [6]; 10000 nM): 106%
cell viability (HepG2 [7]; 1 nM): 104%
cell viability (HepG2 [7]; 10 nM): 103%
cell viability (HepG2 [7]; 100 nM): 53.2%
cell viability (HepG2 [7]; 1000 nM): 13.7%
cell viability (HepG2 [7]; 10000 nM): 95%
drug-induced phospholipidosis (A549-ACE2 [8]; 0.3 µM, 24 h): 2.43%
drug-induced phospholipidosis (A549-ACE2 [8]; 0.833333 µM, 24 h): -1.42%
drug-induced phospholipidosis (A549-ACE2 [8]; 3.33333 µM, 24 h): 2.59%
drug-induced phospholipidosis (A549-ACE2 [8]; 6.66667 µM, 24 h): -0.54%
drug-induced phospholipidosis (A549-ACE2 [8]; 6.66667 µM, 48 h): -0.28%
drug-induced phospholipidosis (A549-ACE2 [8]; 6.66667 µM, 72 h): 1.75%
drug-induced phospholipidosis (A549-ACE2 [8]; 10 µM, 24 h): 2.87%
drug-induced phospholipidosis (A549-ACE2 [8]; 10 µM, 48 h): 1.88%
drug-induced phospholipidosis (A549-ACE2 [8]; 10 µM, 72 h): 1.77%
drug-induced phospholipidosis (A549-ACE2 [8]; 30 µM, 24 h): 7.83%
cell count ([9]; 0.3 µM): 105%
cell count ([9]; 3 µM): 106%
cell count ([9]; 10 µM): 63%
cell count ([9]; 30 µM): 58%
relative viability EC50 (Caco-2 [10]): 31.4 nM
relative viability EC50 (Vero E6 [11]): > 10000 nM
relative viability EC50 (U2OS [12]): > 10000 nM
relative viability EC50 (Calu-3 [13]): > 10000 nM
relative viability EC50 (HepG2 [14]): 93.6 nM
drug sensitivity score (Caco-2 [15]): 27.5
drug sensitivity score (Vero E6 [16]): 0
drug sensitivity score (U2OS [17]): 0.2
drug sensitivity score (Calu-3 [18]): 0
drug sensitivity score (HepG2 [19]): 21.4
SARS-CoV-2 infection rate ([20]; 0.3 µM): 84%
SARS-CoV-2 infection rate ([20]; 3 µM): 76%
SARS-CoV-2 infection rate ([20]; 10 µM): 27%
SARS-CoV-2 infection rate ([20]; 30 µM): 32%
